Values quoted from earlier work as cited in patent publication US8383579B2, “Method for customized dispensing of variable dose drug combination products for individualizing of therapies” (Glaxosmithkline, LLC, priority 2004, dated 2013).

What was measured:
[1] = Coreg + cimetidine
[2] = Lanoxin + coreg UID

| SMILES | AUC steady state [1] | Cmax [1] | peak/trough conc [2] |
| --- | --- | --- | --- |
| COc1ccccc1OCCNCC(O)COc1cccc2[nH]c3ccccc3c12 (stereo not drawn) [Coreg] | 30% | no change |  |
| C[C@H]1O[C@@H](O[C@H]2[C@@H](O)C[C@H](O[C@H]3[C@@H](O)C[C@H](O[C@H]4CC[C@@]5(C)[C@H](CC[C@@H]6[C@@H]5C[C@@H](O)[C@]5(C)[C@@H](C7=CC(=O)OC7)CC[C@]65O)C4)O[C@@H]3C)O[C@@H]2C)C[C@H](O)[C@@H]1O [Lanoxin, digoxin] |  |  | 14-16% |
